From PubChem BioAssay AID1963841 (Molecular Pharmacology Branch, DTP, NCI, 2024)

System: 439559-082-T-J2-PDC spheroid viability
Assay: Anticancer human tumor 439559-082-T-J2-PDC patient-derived colon adenocarcinoma cell line growth inhibition [POLQ]
Conditions: spheroids with HUVEC and MSC; for IC50: curve of first compound; for viability, T/C: stronger effect = lower value
Protocol: Multicellular complex tumor spheroid response to Polymerase (POL) inhibitors (novobiocin, ART-558, RP6685) in combination with a variety of drugs and investigational agents in selected tumor cell lines
The POL inhibitors (novobiocin, ART-558, and RP6685) were evaluated both individually and in combination with standard of care and investigational anticancer small molecules within a complex spheroid model of solid tumors. . Complex spheroids include a stromal component modeled by human endothelial cells (HUVEC) and fibroblasts modeled by human mesenchymal stem cells (MSCs). The concentration ranges selected for each drug and investigational agent were based upon clinically achievable concentrations if the clinical Cmax of the agent was known.
Compounds. The drugs and investigational agents: novobiocin (NSC847541), ART-558 (NSC835418), RP-6685 (NSC848927), peposertib (NSC802822), ceralasertib (NSC780249), elimusertib (NSC800525), camonsertib (NSC841442), AZD-1390 (NSC803789), olaparib (NSC753686), talazoparib (NSC767125), rucaparib (NSC756644), sotorasib (NSC818433), MRTX-1133 (NSC836407), SN-38 (NSC673596), topotecan (NSC609699), epotoside (NSC141540), doxorubicin (NSC123127), gemcitabine (NSC613327), 5-fluorouracil (NSC19893), paclitaxel (NSC125973), vemurafenib (NSC761431), MSA-2 (NSC828583), SN-011 (NSC837082), adavosertib (NSC754352), prexasertib (NSC758257), carboplatin (NSC241240) and oxaliplatin (NSC266046), were obtained from the National Cancer Institute (NCI) Developmental Therapeutics Program Chemical Repository (21). The FDA-approved anticancer drug set is available from the Developmental Therapeutics Program at https://dtp.cancer.gov/organization/dscb/obtaining/. […] The stock solutions were prepared in dimethyl sulfoxide (DMSO, Sigma-Aldrich, St. Louis, MO, cat. D2650), except for the platinum compounds which were prepared in saline (Quality Biological, Gaithersburg, MD, cat. 114-055-101), at 800-fold the tested concentration and stored at -70 degrees C prior to their use. All drugs and investigational agents were tested over a range starting from a high concentration at or near the clinical Cmax and decreasing in half-log increments. If the clinical Cmax for an agent had not been determined, the highest concentration tested was 10 microM, except for SN-38, which was tested at a high concentration of 1 microM.
Cell Culture. All cells were maintained in an incubator at 37 degrees C and 5% CO2 with 95% humidity. The PDC lines were cultured according to standard operating procedures established by the NCI PDMR (https://pdmr.cancer.gov). Table 3 of the manuscript, lists the cell lines along with the number of the three cell types plated to form the mct-spheroids and media for tumor cell growth. After thawing, all PDC lines, except 997537-175-T-J1-PDC and 415267-285-R-J2-PDC, were cultured in Matrigel-coated flasks prepared with a working solution of 1X Ham's F-12 nutrient mix, without supplementation (Thermo Fisher Scientific, cat. 11765054), 100 U/mL penicillin-streptomycin (Thermo Fisher Scientific, cat. 15140122), and 2.5% Matrigel (Corning Inc., Corning, NY, cat. 354248) for the first three passages. The two PDC lines 997537-175-T-J1-PDC and 415267-285-R-J2-PDC were cultured on uncoated flasks. The 857933-349-R-J2-PDC line was cultured in 6C/Colon 1B media containing advanced DMEM/F-12 (Thermo Fisher Scientific, cat. 12634028), 10 mM HEPES (Thermo Fisher Scientific, cat. 15630080), 1X GlutaMAX supplement (Thermo Fisher Scientific, cat. 35050061), 0.1 mg/mL primocin (InvivoGen, San Diego, CA, cat. ant-pm-2), 10% defined fetal bovine serum, heat inactivated (HyClone Laboratories Inc., Logan, UT, cat. SH30070.03HI), 50% L-WRN conditioned media (ATCC, cat. CRL-3276), 1.25 mM N-Acetyl-L-cysteine (Sigma-Aldrich, cat. A9165), 10 mM nicotinamide (Sigma-Aldrich, cat. N0636), 1X B-27 supplement (Thermo Fisher Scientific, cat. 17504044), 1X N-2 supplement (Thermo Fisher Scientific, cat. […]

[1] = second compound 0.0316 µM, first compound 0.0316 µM
[2] = second compound 0.0316 µM, first compound 0.1 µM
[3] = second compound 0.0316 µM, first compound 0.316 µM
[4] = second compound 0.0316 µM, first compound 1 µM
[5] = second compound 0.0316 µM, first compound 3.16 µM
[6] = second compound 0.0316 µM, first compound 10 µM
[7] = second compound 0.1 µM, first compound 0.0316 µM
[8] = second compound 0.1 µM, first compound 0.1 µM
[9] = second compound 0.1 µM, first compound 0.316 µM
[10] = second compound 0.1 µM, first compound 1 µM
[11] = second compound 0.1 µM, first compound 3.16 µM
[12] = second compound 0.1 µM, first compound 10 µM
[13] = second compound 0.316 µM, first compound 0.0316 µM
[14] = second compound 0.316 µM, first compound 0.1 µM
[15] = second compound 0.316 µM, first compound 0.316 µM
[16] = second compound 0.316 µM, first compound 1 µM
[17] = second compound 0.316 µM, first compound 3.16 µM
[18] = second compound 0.316 µM, first compound 10 µM
[19] = second compound 1 µM, first compound 0.0316 µM
[20] = second compound 1 µM, first compound 0.1 µM
[21] = second compound 1 µM, first compound 0.316 µM
[22] = second compound 1 µM, first compound 1 µM
[23] = second compound 1 µM, first compound 3.16 µM
[24] = second compound 1 µM, first compound 10 µM
[25] = second compound 3.16 µM, first compound 0.0316 µM
[26] = second compound 3.16 µM, first compound 0.1 µM
[27] = second compound 3.16 µM, first compound 0.316 µM
[28] = second compound 3.16 µM, first compound 1 µM
[29] = second compound 3.16 µM, first compound 3.16 µM
[30] = second compound 3.16 µM, first compound 10 µM
[31] = second compound 10 µM, first compound 0.0316 µM
[32] = second compound 10 µM, first compound 0.1 µM
[33] = second compound 10 µM, first compound 0.316 µM
[34] = second compound 10 µM, first compound 1 µM
[35] = second compound 10 µM, first compound 3.16 µM
[36] = second compound 10 µM, first compound 10 µM
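Also: spheroids exposed to compounds for seven days before readout.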
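For viability, T/C in this document: 100% = DMSO vehicle control viability.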

## CCc1cc2c(N3CCc4c(cc(Cn5ccnc5)cc4-c4cn(C)nc4C(F)(F)F)C3=O)cc(C)nc2c(OC)n1 + Cc1cccc(N(C)C(=O)C2C(O)CCN2c2nc(C)cc(C(F)(F)F)c2C#N)c1
Second compound 0.0316 µM
  IC50: > 10 µM
Second compound 0.1 µM
  IC50: > 10 µM
Second compound 0.316 µM
  IC50: > 10 µM
Second compound 1 µM
  IC50: > 10 µM
Second compound 3.16 µM
  IC50: > 10 µM
Second compound 10 µM
  IC50: > 10 µM
[1]
  viability, T/C: 105%
[2]
  viability, T/C: 101%
[3]
  viability, T/C: 101%
[4]
  viability, T/C: 98.3%
[5]
  viability, T/C: 95.1%
[6]
  viability, T/C: 97.3%
[7]
  viability, T/C: 101%
[8]
  viability, T/C: 96.9%
[9]
  viability, T/C: 90.2%
[10]
  viability, T/C: 77.2%
[11]
  viability, T/C: 111%
[12]
  viability, T/C: 105%
[13]
  viability, T/C: 94.7%
[14]
  viability, T/C: 95.3%
[15]
  viability, T/C: 105%
[16]
  viability, T/C: 81%
[17]
  viability, T/C: 90.6%
[18]
  viability, T/C: 89.8%
[19]
  viability, T/C: 96.6%
[20]
  viability, T/C: 104%
[21]
  viability, T/C: 95.8%
[22]
  viability, T/C: 95.7%
[23]
  viability, T/C: 99.6%
[24]
  viability, T/C: 94.9%
[25]
  viability, T/C: 111%
[26]
  viability, T/C: 93.6%
[27]
  viability, T/C: 87.6%
[28]
  viability, T/C: 92.2%
[29]
  viability, T/C: 107%
[30]
  viability, T/C: 94%
[31]
  viability, T/C: 94.8%
[32]
  viability, T/C: 111%
[33]
  viability, T/C: 80.7%
[34]
  viability, T/C: 91.5%
[35]
  viability, T/C: 98.1%
[36]
  viability, T/C: 86%

## COc1ccc([C@@H](O)c2cc(-c3ncnc4cc(N5CCOCC5)ccc34)c(F)cc2Cl)nn1 + Cc1cccc(N(C)C(=O)C2C(O)CCN2c2nc(C)cc(C(F)(F)F)c2C#N)c1
Second compound 0.0316 µM
  IC50: > 10 µM
Second compound 0.1 µM
  IC50: > 10 µM
Second compound 0.316 µM
  IC50: > 10 µM
Second compound 1 µM
  IC50: > 10 µM
Second compound 3.16 µM
  IC50: > 10 µM
Second compound 10 µM
  IC50: > 10 µM
[1]
  viability, T/C: 95.2%
[2]
  viability, T/C: 95.5%
[3]
  viability, T/C: 95.9%
[4]
  viability, T/C: 94.9%
[5]
  viability, T/C: 93.4%
[6]
  viability, T/C: 81.5%
[7]
  viability, T/C: 101%
[8]
  viability, T/C: 99.3%
[9]
  viability, T/C: 94.7%
[10]
  viability, T/C: 92.9%
[11]
  viability, T/C: 92%
[12]
  viability, T/C: 80.1%
[13]
  viability, T/C: 105%
[14]
  viability, T/C: 111%
[15]
  viability, T/C: 92.1%
[16]
  viability, T/C: 99.3%
[17]
  viability, T/C: 87.4%
[18]
  viability, T/C: 80.9%
[19]
  viability, T/C: 108%
[20]
  viability, T/C: 101%
[21]
  viability, T/C: 91.6%
[22]
  viability, T/C: 93.4%
[23]
  viability, T/C: 85.5%
[24]
  viability, T/C: 83%
[25]
  viability, T/C: 95.1%
[26]
  viability, T/C: 92.3%
[27]
  viability, T/C: 97.4%
[28]
  viability, T/C: 95.6%
[29]
  viability, T/C: 78.1%
[30]
  viability, T/C: 77.1%
[31]
  viability, T/C: 94.8%
[32]
  viability, T/C: 94.7%
[33]
  viability, T/C: 93%
[34]
  viability, T/C: 83.5%
[35]
  viability, T/C: 83.6%
[36]
  viability, T/C: 78.3%
